{"source": "patent US7314614B1", "about": "“Recombinant sendai virus vector for introducing exogenous genes to airway epithelia” (priority 1999, dated 2008)", "target": "T1, CFTR (Homo sapiens, UniProt P13569)", "T1 construct": "expressed in transfected cells; host or cells: COS7 cells infected with the recombinant Sendai virus SeV/CFTR (CFTR cDNA in the NotI site of pSeV18+b(+))", "T1 sequence (P13569 whole entry)": "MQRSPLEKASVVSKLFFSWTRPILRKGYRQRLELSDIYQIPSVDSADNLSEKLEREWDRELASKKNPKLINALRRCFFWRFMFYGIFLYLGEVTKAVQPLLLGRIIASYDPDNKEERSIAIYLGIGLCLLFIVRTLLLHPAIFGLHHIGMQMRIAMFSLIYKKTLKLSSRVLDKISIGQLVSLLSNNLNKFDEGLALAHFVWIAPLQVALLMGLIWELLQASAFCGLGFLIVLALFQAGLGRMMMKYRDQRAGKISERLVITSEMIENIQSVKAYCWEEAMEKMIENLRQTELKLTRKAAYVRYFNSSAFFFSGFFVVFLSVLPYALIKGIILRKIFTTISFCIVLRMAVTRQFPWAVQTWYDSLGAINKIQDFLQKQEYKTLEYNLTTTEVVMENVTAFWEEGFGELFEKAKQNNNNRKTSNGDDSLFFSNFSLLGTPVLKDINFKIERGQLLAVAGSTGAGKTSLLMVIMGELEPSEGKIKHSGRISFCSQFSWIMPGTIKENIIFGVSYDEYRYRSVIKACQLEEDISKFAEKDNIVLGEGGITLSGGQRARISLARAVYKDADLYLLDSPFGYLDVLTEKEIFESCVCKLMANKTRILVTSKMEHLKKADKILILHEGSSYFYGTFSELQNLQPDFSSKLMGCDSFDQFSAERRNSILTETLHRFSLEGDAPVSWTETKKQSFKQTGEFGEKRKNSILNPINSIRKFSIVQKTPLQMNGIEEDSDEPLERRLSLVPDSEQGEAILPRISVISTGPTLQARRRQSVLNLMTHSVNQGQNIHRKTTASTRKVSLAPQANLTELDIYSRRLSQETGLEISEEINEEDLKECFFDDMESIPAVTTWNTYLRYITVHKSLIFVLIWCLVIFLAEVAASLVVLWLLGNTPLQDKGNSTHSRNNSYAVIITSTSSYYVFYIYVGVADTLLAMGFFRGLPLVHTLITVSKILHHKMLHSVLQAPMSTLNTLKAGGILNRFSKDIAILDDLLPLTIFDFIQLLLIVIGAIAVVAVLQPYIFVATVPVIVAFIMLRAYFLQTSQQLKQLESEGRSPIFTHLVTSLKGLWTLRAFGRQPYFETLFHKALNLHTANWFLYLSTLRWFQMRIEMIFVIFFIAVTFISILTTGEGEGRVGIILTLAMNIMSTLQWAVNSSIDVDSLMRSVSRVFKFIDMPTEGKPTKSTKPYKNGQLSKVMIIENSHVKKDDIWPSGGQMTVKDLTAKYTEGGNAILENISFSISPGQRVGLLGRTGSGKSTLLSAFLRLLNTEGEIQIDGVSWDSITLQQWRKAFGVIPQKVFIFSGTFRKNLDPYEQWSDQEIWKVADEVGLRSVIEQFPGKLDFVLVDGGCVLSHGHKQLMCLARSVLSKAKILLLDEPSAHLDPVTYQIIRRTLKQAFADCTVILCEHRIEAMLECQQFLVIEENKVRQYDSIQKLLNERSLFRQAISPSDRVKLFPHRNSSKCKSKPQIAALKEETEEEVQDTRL", "experiment": "Whole-cell patch clamp of COS7 cells infected with CFTR-expressing Sendai virus", "type": "cell-based", "conditions": "COS7 cells expressing sample-1 SeV/CFTR", "procedure": "COS7 cells were infected with the prepared CFTR-expressing Sendai virus (sample-1 SeV/CFTR), and the obtained infected cells were analyzed by the whole-cell patch clamp technique. […] A glass pipette containing a pipette solution was contacted with a cell within a bath solution, and negative pressure was applied to remove the cell membranes. In this occasion, the pipette solution contains 145 mM NMDG^+, 148.4 mM Cl^−, […], 5 mM ATP, 10 mM glucose, 0.1 mM EGTA, and 10 mM HEPES (titrated by Tris, pH 7.4), and the bath solution contains 141 mM Na^+, 152.4 mM Cl^−, […], 5 mM K^+, 1.7 mM Mg^2+, 2 mM Ca^2+, 10 mM glucose, 0.1 mM EGTA, and 10 mM HEPES (titrated by Tris, pH 7.4). The effects of forskolin on the membrane current in COS7 cells expressing sample-1 SeV/CFTR were examined by whole-cell recording (FIG. 14). […] The influx current was reproduced by adding forskolin again after a single wash, and was again suppressed by glibenclamide, which confirmed that the observed change in current was a specific drug-induced response."}
{"smiles": "COc1ccc(Cl)cc1C(=O)NCCc1ccc(S(=O)(=O)NC(=O)NC2CCCCC2)cc1", "note": "[Glibenclamide]", "values": [{"measurement": "effect on forskolin-induced Cl− currents", "setting": "300 μM", "value": "inhibited"}, {"measurement": "effect on forskolin-induced influx current", "setting": "whole-cell recording, reproduced after wash (FIG. 14)", "value": "suppressed"}]}
